Data taken from patent US11891634B2, “PDE5A destabilizing domains” (The Board of Trustees of the Leland Stanford Junior …, priority 2017, dated 2024).

Assays:
Type in all cases: cell-based, human
[1] = system: HCT 116 cells transduced with the PDE5A DD derived GFP constructs; assay: Response to Vardenafil, GFP expression by FACS in HCT116; conditions: for MFI / Stabilization ratio with Vardenafil: 48 hours, HCT116
Protocol: (§1) Mutations were created in PDE5A (535-860) catalytic domain using site directed mutagenesis and the mutants were cloned as AcGFP fusion into pELNS vector carrying mCherry marker and packaged in lentiviral vectors. HCT116 cells were transduced with the constructs and stable integrants were selected by cell sorting using mCherry marker. Cells were treated with vehicle (dimethyl sulfoxide, DMSO) or 10 μM Vardenafil (VDF) for 48 hours. Following the treatment, cells were analyzed for GFP expression using FACS. Basal expression was calculated as the ratio of GFP signal in the absence of ligand for a given cell line to auto fluorescence of parental HCT-116 cells. Stabilization ratio was calculated as the ratio of the GFP signal observed in the presence of stabilizing ligand to the signal from the same cell line in the absence of ligand.
HCT 116 cells transduced with the PDE5A DD derived GFP constructs were also tested with increasing doses of Vardenafil. The HCT116 cells were incubated for 48 hours with Vardenafil starting at a dose of 0.002 μM to 30 μM. The GFP intensity of the Vardenafil treated samples was compared to the parental untransduced HCT116 and DMSO treated cells for each construct. The mean fluorescence intensity was calculated for each sample and used to calculate the stabilization ratios as well as the basal expression for each construct. The GFP expression was measured using flow cytometry and the mean fluorescence intensity (MFI) was calculated for each sample. The stabilization ratios are shown in Table 13 and Table 14 and the basal expression is show in Table 15.

[2] = system: HCT 116 cells transduced with the PDE5A DD derived GFP constructs; assay: Response to Tadalafil, GFP expression by FACS in HCT116; conditions: for MFI / Stabilization ratio with Tadalafil: 48 hours, HCT116
Protocol: as §1, with “PDE5AN (#3) was” for “Mutations were created in PDE5A (535-860) catalytic domain using site directed mutagenesis and the mutants were”, “construct” for “constructs”, “varying doses of Tadalafil (TDF)” for “10 μM Vardenafil (VDF)”, “hrs with doses ranging from 0.01 μM to 100 μM.” for “hours.”
HCT 116 cells transduced with the PDE5A DD derived GFP constructs were also tested with increasing doses of Tadalafil. The HCT116 cells were incubated for 48 hours with Tadalafil starting at dose 0.01 μM to 100 μM. The GFP intensity of the Tadalafil treated samples was compared to the parental untransduced HCT116 and DMSO treated cells for each construct. The mean fluorescence intensity was calculated for each sample and used to calculate the stabilization ratios as well as the basal expression for each construct. The stabilization ratios are shown in Table 19 and Table 20 and the basal expression is show in Table 21.

[3] = system: HCT116 cells transduced with the constructs; assay: Response to Sildenafil, GFP expression by flow cytometry in HCT116; conditions: for MFI / Stabilization ratio with Sildenafil: 48 hours, HCT116
Protocol: Similar experiments were performed in HCT116 cells using sildenafil. The above-mentioned DDs were cloned as AcGFP fusion into pELNS vector carrying mCherry marker and packaged in lentiviral vectors. HCT116 cells were transduced with the constructs and stable integrants were selected by cell sorting using mCherry marker. Cells were treated with sildenafil at the following μM concentrations: 0.01, 0.02, 0.05, 0.14, 0.41, 1.23, 3.7, 11.11, 33.33, and 100 for a duration of 48 hours. The fluorescence was analyzed by flow cytometry and the mean fluorescence intensity was calculated for all samples. […] The stabilization ratios are shown in Table 24 and Table 25 and the basal expression is show in Table 26.

PDE5AC (#13): AcGFP fused to C-terminal DD 535-860 of PDE5A (Q589R, Y676D, L738H), SEQ ID NO. 24
MFI ([1]; DMSO (no Vardenafil)): 14659 | Basal (DMSO/Parental) ([1]; Table 10, GFP signal without ligand / auto fluorescence of parental HCT-116): 11.3 | Basal ([1]; Table 15, MFI with DMSO / parental HCT116, Vardenafil experiment): 7.50 | Stabilization ratio with Vardenafil ([1]; Vardenafil 0.002 μM vs DMSO): 1.3 | MFI ([1]; Vardenafil 0.002 μM): 18393 | MFI ([1]; Vardenafil 0.005 μM): 27661 | Stabilization ratio with Vardenafil ([1]; Vardenafil 0.014 μM vs DMSO): 4.1 | MFI ([1]; Vardenafil 0.014 μM): 59673 | Stabilization ratio with Vardenafil ([1]; Vardenafil 0.041 μM vs DMSO): 5.3 | MFI ([1]; Vardenafil 0.041 μM): 78117 | Stabilization ratio with Vardenafil ([1]; Vardenafil 0.123 μM vs DMSO): 6.0 | MFI ([1]; Vardenafil 0.123 μM): 88571 | Stabilization ratio with Vardenafil ([1]; Vardenafil 0.370 μM vs DMSO): 6.8 | MFI ([1]; Vardenafil 0.370 μM): 99160 | Stabilization ratio with Vardenafil ([1]; Vardenafil 1.111 μM vs DMSO): 6.8 | MFI ([1]; Vardenafil 1.111 μM): 99377 | Stabilization ratio with Vardenafil ([1]; Vardenafil 3.333 μM vs DMSO): 7.2 | MFI ([1]; Vardenafil 3.333 μM): 105500 | Stabilization ratio with Vardenafil ([1]; Vardenafil 10 μM vs DMSO): 6.7 | MFI ([1]; Vardenafil 10 μM): 97493 | Stabilization ratio with Vardenafil ([1]; Vardenafil 30 μM vs DMSO): 7.2 | MFI ([1]; Vardenafil 30 μM): 105335 | MFI ([2]; DMSO (no Tadalafil)): 14416 | Basal expression ([2]; Table 21, MFI with DMSO / parental HCT116, Tadalafil experiment): 11.26 | Stabilization ratio with Tadalafil ([2]; Tadalafil 0.01 μM vs DMSO): 1.0 | MFI ([2]; Tadalafil 0.01 μM): 14388 | Stabilization ratio with Tadalafil ([2]; Tadalafil 0.02 μM vs DMSO): 1.0 | MFI ([2]; Tadalafil 0.02 μM): 14908 | Stabilization ratio with Tadalafil ([2]; Tadalafil 0.05 μM vs DMSO): 1.1 | MFI ([2]; Tadalafil 0.05 μM): 16488 | MFI ([2]; Tadalafil 0.14 μM): 21292 | Stabilization ratio with Tadalafil ([2]; Tadalafil 0.41 μM vs DMSO): 2.3 | MFI ([2]; Tadalafil 0.41 μM): 33396 | Stabilization ratio with Tadalafil ([2]; Tadalafil 1.23 μM vs DMSO): 4.1 | MFI ([2]; Tadalafil 1.23 μM): 58867 | Stabilization ratio with Tadalafil ([2]; Tadalafil 3.7 μM vs DMSO): 5.7 | MFI ([2]; Tadalafil 3.7 μM): 81755 | Stabilization ratio with Tadalafil ([2]; Tadalafil 11.11 μM vs DMSO): 6.4 | MFI ([2]; Tadalafil 11.11 μM): 92484 | Stabilization ratio with Tadalafil ([2]; Tadalafil 33.33 μM vs DMSO): 6.7 | MFI ([2]; Tadalafil 33.33 μM): 96959 | Stabilization ratio with Tadalafil ([2]; Tadalafil 100 μM vs DMSO): 7.3 | MFI ([2]; Tadalafil 100 μM): 105048 | MFI ([3]; DMSO (no Sildenafil)): 15122 | Stabilization ratio with Sildenafil ([3]; Sildenafil 0.01 μM vs DMSO): 1.0 | MFI ([3]; Sildenafil 0.01 μM): 14787 | Stabilization ratio with Sildenafil ([3]; Sildenafil 0.02 μM vs DMSO): 1.1 | MFI ([3]; Sildenafil 0.02 μM): 17318 | MFI ([3]; Sildenafil 0.05 μM): 26905 | Stabilization ratio with Sildenafil ([3]; Sildenafil 0.14 μM vs DMSO): 3.2 | MFI ([3]; Sildenafil 0.14 μM): 48611 | Stabilization ratio with Sildenafil ([3]; Sildenafil 0.41 μM vs DMSO): 4.6 | MFI ([3]; Sildenafil 0.41 μM): 69042 | Stabilization ratio with Sildenafil ([3]; Sildenafil 1.23 μM vs DMSO): 5.6 | MFI ([3]; Sildenafil 1.23 μM): 84772 | Stabilization ratio with Sildenafil ([3]; Sildenafil 3.70 μM vs DMSO): 5.5 | MFI ([3]; Sildenafil 3.70 μM): 82519 | Stabilization ratio with Sildenafil ([3]; Sildenafil 11.11 μM vs DMSO): 6.1 | MFI ([3]; Sildenafil 11.11 μM): 92732 | Stabilization ratio with Sildenafil ([3]; Sildenafil 33.33 μM vs DMSO): 6.2 | MFI ([3]; Sildenafil 33.33 μM): 93336 | Stabilization ratio with Sildenafil ([3]; Sildenafil 100.00 μM vs DMSO): 5.0 | MFI ([3]; Sildenafil 100.00 μM): 76090 | Basal expression ([3]; Table 26, MFI with DMSO / parental HCT116, Sildenafil experiment): 11.7
